Experimental findings from ChEMBL document CHEMBL1201862, “PubChem BioAssay data set” (2004) are described below.

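Grown in 96-well plates, cells were treated for 48 hours with each compound at five concentrations. Insufficient inhibition: endpoint recorded as highest concentration tested. Here, GI50 denotes the concentration required for 50% inhibition of growth.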 Active and inactive are the calls of the source. Cut-off read from the data, not from the text of the source: active = GI50 up to about 1.1 µM and inactive = higher. Where only a bound is given, the exact number is not on record here.

Some test systems named below: A549; SK-OV-3; UACC-62; COLO 205; DU-145; EKVX; U-251; ACHN; T47D; LOX IMVI; UO-31; SF-268; DMS-114; BT-549; HCC 2998; RPMI-8226; OVCAR-4.
What all share (assay): inhibition of tumour cell growth, NCI panel, 48 h

Consider `O=c1c(Cl)c(Cl)cnn1CCCl`, for which the GI50 with A549 was 17.9 µM (inactive); in the experiment on SK-OV-3, 3.56 µM (inactive); in the experiment with UACC-62, 3.4 µM (inactive); with COLO 205, 2.24 µM (inactive); in the experiment with DU-145, 18.7 µM (inactive); in the experiment on EKVX, 6.73 µM (inactive). In addition, the GI50 was 5.9 µM (inactive) in the experiment on U-251; 0.904 µM (active) in the experiment with ACHN; 3.34 µM (inactive) in the experiment with T47D; 2.86 µM (inactive) with LOX IMVI; 5.75 µM (inactive) in the experiment with UO-31; 3.83 µM (inactive) in the experiment with SF-268. Besides, the GI50 with DMS-114 is 4.3 µM (inactive); in the experiment on BT-549, 3.47 µM (inactive); with HCC 2998, 3.34 µM (inactive); in the experiment on RPMI-8226 it was 6.5 µM (inactive); with OVCAR-4, 1.57 µM (inactive).
Take `Cc1ccc(NC(=O)CCC(=O)C2Cc3ccccc3C2=O)cc1C` (stereo not drawn): the GI50 with A549, in the experiment with SK-OV-3, with UACC-62, in the experiment with COLO 205, in the experiment with EKVX and in the experiment on U-251 was > 100 µM (inactive) in each case. Also, the GI50 with ACHN, in the experiment on LOX IMVI, in the experiment with UO-31, in the experiment on SF-268, in the experiment with DMS-114 and in the experiment with HCC 2998 was > 100 µM (inactive) throughout. Also, the GI50 with RPMI-8226 and with OVCAR-4 was > 100 µM (inactive) throughout.
Take `N#CCCN(c1ccc(-c2nnc(NC(=O)CNNC(=O)CC(=O)Nc3ccccc3)s2)cc1)S(=O)(=O)c1ccccc1`: the GI50 with A549 was 88.1 µM (inactive); with SK-OV-3, > 100 µM (inactive); with UACC-62, 50.8 µM (inactive); in the experiment with COLO 205, > 100 µM (inactive); in the experiment on EKVX, > 100 µM (inactive); in the experiment with U-251, > 100 µM (inactive). In addition, the GI50 is > 100 µM (inactive) with ACHN; > 100 µM (inactive) in the experiment with LOX IMVI; 46.3 µM (inactive) in the experiment with UO-31; > 100 µM (inactive) with SF-268; 55.8 µM (inactive) in the experiment on DMS-114; > 100 µM (inactive) in the experiment with HCC 2998. Besides, the GI50 in the experiment on RPMI-8226 is > 100 µM (inactive); in the experiment with OVCAR-4, 53.2 µM (inactive).
Consider `CCN1C(=O)C(N=[N+]=[N-])(c2ccccc2)C(=O)c2ccccc21` (stereo not drawn), for which the GI50 was 55.8 µM (inactive) with A549; > 100 µM (inactive) with SK-OV-3; 62.8 µM (inactive) in the experiment on UACC-62; > 100 µM (inactive) with COLO 205; 32.9 µM (inactive) with EKVX; > 100 µM (inactive) in the experiment with U-251. The GI50 was > 100 µM (inactive) with ACHN; > 100 µM (inactive) in the experiment on LOX IMVI; 43.7 µM (inactive) with UO-31; 83.2 µM (inactive) in the experiment on SF-268; 41.7 µM (inactive) in the experiment with DMS-114; > 100 µM (inactive) with HCC 2998. Also, the GI50 in the experiment with RPMI-8226 was 35.6 µM (inactive); with OVCAR-4, 59 µM (inactive).
As for `COc1ccc(CN2C(=O)C(Cc3cc(OC)c(OC)c(C)c3OC)N(C(=O)OC(C)C)C(=O)/C2=C/c2cc(OC)c(OC)c(C)c2OC)cc1` (stereo not drawn), the GI50 with A549 was > 100 µM (inactive); in the experiment with SK-OV-3, > 100 µM (inactive); with UACC-62 it was > 100 µM (inactive); in the experiment on COLO 205, 45.2 µM (inactive); with EKVX, 50.8 µM (inactive); with U-251, > 100 µM (inactive). Moreover, the GI50 with ACHN is > 100 µM (inactive); in the experiment on LOX IMVI, > 100 µM (inactive); in the experiment on UO-31, 16.6 µM (inactive); in the experiment with SF-268, > 100 µM (inactive); with DMS-114, 24.9 µM (inactive); with HCC 2998, > 100 µM (inactive). In addition, the GI50 in the experiment on RPMI-8226 was 16.4 µM (inactive); in the experiment with OVCAR-4, > 100 µM (inactive).
